From US10493254B2, “Permeant delivery system and methods for use thereof” (priority 2008, dated 2019)

Assay: Exenatide delivery from liquid patch with permeability enhancer through microporated abdomen
Settings: hairless rat abdomen microporated; patch with 20 OuL solution of exenatide (10.5 mg/mL) and agent (3% w/v); fresh solution every four hours

For `O=C([O-])CC(O)(CC(=O)[O-])C(=O)O.[Na+].[Na+]` [disodium citrate], the “exenatide levels over 24 hours” value was “roughly steady levels”.
